Key:
[1] = target: T1, mouse TGR5 receptor (Mus musculus, UniProt Q80SS6); assay: Mouse TGR5 cAMP production assay (luminescent, DiscoveRx cAMP XS+); type: cell-based; settings: HEK293-EBNA cells overexpressing mouse TGR5, luminescent cAMP XS+; coded A-D; read-out: Mouse TGR5 Lum. cAMP Activity (EC50)
T1 construct: expressed in transfected cells; host or cells: HEK293-EBNA (293 c18, ATCC CRL10852), Hygromycin B selection
T1 sequence (Q80SS6 1-329): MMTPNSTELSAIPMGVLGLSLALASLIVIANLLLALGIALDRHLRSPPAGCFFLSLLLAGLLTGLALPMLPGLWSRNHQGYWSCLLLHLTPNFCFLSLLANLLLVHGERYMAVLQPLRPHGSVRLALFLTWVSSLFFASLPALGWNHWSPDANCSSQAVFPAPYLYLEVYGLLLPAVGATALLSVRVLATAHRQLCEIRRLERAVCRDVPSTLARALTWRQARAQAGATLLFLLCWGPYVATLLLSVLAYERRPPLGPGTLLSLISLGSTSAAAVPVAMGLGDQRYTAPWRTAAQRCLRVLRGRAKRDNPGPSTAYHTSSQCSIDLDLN
Source text: Mouse TGR5 cAMP Production Assay
We evaluated compounds of the present invention for their ability to induce cAMP production in HEK-EBNA cells overexpressing the mouse TGR5 receptor. Human embryonic kidney cells (HEK293-EBNA) stably expressing mouse TGR5 receptor were established using the following procedure. Specifically, a commercially-obtained gene encoding mouse TGR5 (accession number BC116914) from Thermo Scientific (Waltham, Mass.) was cloned into an episomal expression vector. The resulting expression plasmid was then transfected into 293 c18 (ATCC® CRL10852™) cells, which express the Epstein-Barr virus nuclear antigen EBNA1 and can support the replication of episomal vectors. Selection for the plasmid was maintained with Hygromycin B. Cells were cultured and maintained in DMEM (Sigma; cat #6429) supplemented with 10% Fetal Bovine Serum, 1% penicillin/streptomycin, 2 mM L-alanine L-glutamine (GlutaMax), and 250 μg/mL Hygromycin.
Two cAMP production assays were developed.
1. Luminescent cAMP Production Assay
In this first cAMP production assay, the cAMP production was measured using DiscoveRx's cAMP XS+ kit following the manufacturer's recommended protocol.
Briefly, HEK293-EBNA cells stably overexpressing mouse TGR5 were harvested using non-enzymatic cell dissociation buffer (Sigma-Aldrich, St. Louis, Mo.), spun down, then resuspended in serum-free DMEM with 500 μM IBMX at a density of 1.25×10^6 cells/mL. 500 μL of cAMP antibody solution was added to […] of cell suspension and incubated at room temperature for 20 min.
Test compounds were serially diluted (half-log dilutions) in DMSO and then further diluted 1:50 in PBS, 10 mM HEPES buffer. 2 μL of serially diluted compound was added to a 384-well low volume plate (Greiner cat #784075) and centrifuged briefly. 2 μL of the cell/cAMP antibody mixture was then added to each compound-containing well and allowed to incubate at room temperature for one (1) hour. Following incubation, the XS+ kits' ED/Lysis/CL Substrate Working Solution was prepared following the manufacturer's recommended protocol and 4 μL was added to each well of the plate. The plate was then incubated for one (1) hour at room temperature. Following incubation, 4 μL of (Enzyme Acceptor) EA reagent was added to the plate and allowed to incubate overnight at room temperature. Luminescent signal was then detected using the Viewlux instrument (Perkin-Elmer, Waltham, Mass.).
In Table 33, EC50 values for both human and mouse cells were determined according to the TGR5 cAMP assays described above.

[2] = target: T2, human TGR5 receptor (Homo sapiens, UniProt Q8TDU6); assay: Human TGR5 cAMP production assay; type: cell-based; settings: human TGR5, luminescent cAMP assay; coded A-D; read-out: Human TGR5 Lum. cAMP Activity (EC50)
T2 construct: host or cells: CHO-K1 (hTGR5-CHO cells)
T2 sequence (Q8TDU6 1-330): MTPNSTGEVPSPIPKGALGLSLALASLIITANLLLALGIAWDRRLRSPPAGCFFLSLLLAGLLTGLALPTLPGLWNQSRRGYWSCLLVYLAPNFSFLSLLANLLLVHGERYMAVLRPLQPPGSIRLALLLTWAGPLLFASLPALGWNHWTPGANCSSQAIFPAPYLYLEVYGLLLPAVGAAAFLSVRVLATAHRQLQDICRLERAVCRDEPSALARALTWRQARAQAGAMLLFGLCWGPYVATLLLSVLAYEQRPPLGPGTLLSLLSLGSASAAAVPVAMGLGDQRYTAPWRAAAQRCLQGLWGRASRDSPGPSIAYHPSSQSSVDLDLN
Procedure, shortened: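 Intracellular cAMP read by luminescent enzyme-complementation (XS+) after overnight development, following 1 h room-temperature compound treatment of hTGR5-CHO-K1 cells in IBMX plus anti-cAMP antibody. Compounds tested as half-log dilution series; EC50 derived.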

SMILES	EC50 [1]	EC50 [2]
Cc1cnccc1-c1cccc([C@@H](C)NS(=O)(=O)c2cccc(C(F)(F)F)c2)c1 [Compound 5AH, (R)-N-(1-(3-(3-methylpyridin-4-yl)phenyl)ethyl)-3-(trifluoromethyl)benzenesulfonamide]	0.1 to 0.999 µM	< 0.1 µM
COc1cnccc1-c1cccc(C(C)(C)NS(=O)(=O)c2cc(C(F)(F)F)ccc2OC)c1 [Compound 2AW]	1 to 30 µM	1 to 30 µM
C[C@H](NS(=O)(=O)c1cccc(C(F)(F)F)c1)c1cccc(-c2ccncc2F)c1 [Compound 1AY]	1 to 30 µM	0.1 to 0.999 µM
Cc1ccccc1S(=O)(=O)NCc1cccc(-c2ccncc2)c1 [Compound 2AP]	> 30 µM	1 to 30 µM
Cc1noc(C)c1-c1cccc(CNS(=O)(=O)c2ccccc2C(F)(F)F)c1 [Compound 2AC]	1 to 30 µM	1 to 30 µM
CCC(NS(=O)(=O)c1cccc(C(F)(F)F)c1)c1cccc(-c2ccncc2)c1 (centres unmarked) [Compound 1BZ]	1 to 30 µM	0.1 to 0.999 µM
COc1cnccc1-c1cccc([C@H](C)NS(=O)(=O)c2cccc(C(F)(F)F)c2)c1 [Compound 1AZ]	1 to 30 µM	< 0.1 µM
CCc1cnccc1-c1cccc(C(C)(C)NS(=O)(=O)c2cccc(C(F)(F)F)c2)c1 [Compound 5AB, N-(2-(3-(3-ethylpyridin-4-yl)phenyl)propan-2-yl)-3-(trifluoromethyl)benzenesulfonamide]	0.1 to 0.999 µM	< 0.1 µM
COc1cnccc1-c1cccc(C(C)(C)NS(=O)(=O)c2cccc(Br)c2)c1 [Compound 2AT]	1 to 30 µM	0.1 to 0.999 µM
Cc1cncc(F)c1-c1cccc(C(C)(C)NS(=O)(=O)c2cccc(C(F)(F)F)c2)c1 [Compound 1AO]	1 to 30 µM	1 to 30 µM
O=S(=O)(NCc1cccc(-c2ccncc2)c1)c1ccccc1Cl [Compound 2AR]	> 30 µM	1 to 30 µM
Cc1noc(C)c1-c1cccc(CNS(=O)(=O)c2cc(C(F)(F)F)cc(C(F)(F)F)c2)c1 [Compound 2AH]	> 30 µM	1 to 30 µM
O=S(=O)(NCc1cccc(-c2ccncc2F)c1)c1cccc(C(F)(F)F)c1 [Compound 1AP]	1 to 30 µM	0.1 to 0.999 µM
Cc1noc(C)c1-c1cccc(CNS(=O)(=O)c2ccc(C(F)(F)F)cc2)c1 [Compound 1AA]	> 30 µM	1 to 30 µM
Cc1ccc(C(C)(C)NS(=O)(=O)c2cccc(C(F)(F)F)c2)cc1-c1ccncc1 [Compound 1BW]	> 30 µM	1 to 30 µM
O=S(=O)(NCc1ccc(F)c(-c2ccncc2Cl)c1)c1cccc(C(F)(F)F)c1 [Compound 1AT]	1 to 30 µM	1 to 30 µM
C[C@H](NS(=O)(=O)c1ccccc1C(F)(F)F)c1cccc(-c2ccncc2Cl)c1 [Compound 2BT]	0.1 to 0.999 µM	< 0.1 µM
CC(C)Oc1cnccc1-c1cccc(C(C)(C)NS(=O)(=O)c2cccc(C(F)(F)F)c2)c1 [Compound 8AA, N-(2-(3-(3-isopropoxypyridin-4-yl)phenyl)propan-2-yl)-3-(trifluoromethyl)benzenesulfonamide]	0.1 to 0.999 µM	0.1 to 0.999 µM
Cc1noc(C)c1-c1cccc(CNS(=O)(=O)c2ccc(Cl)c(C(F)(F)F)c2)c1 [Compound 2AD]	> 30 µM	1 to 30 µM
Cc1noc(C)c1-c1cccc(C(C)(C)NS(=O)(=O)c2cccc(C(F)(F)F)c2)c1 [Compound 1AC]	1 to 30 µM	1 to 30 µM

SMILES	EC50 [1]	EC50 [2]
C[C@@H](NS(=O)(=O)c1cccc(C(F)(F)F)c1)c1cccc(-c2ccncc2)c1 [Compound 1BB]	1 to 30 µM	0.1 to 0.999 µM
CCOc1cnccc1-c1cccc(C(C)(C)NS(=O)(=O)c2cccc(C(F)(F)F)c2)c1 [Compound 8AB, N-(2-(3-(3-ethoxypyridin-4-yl)phenyl)propan-2-yl)-3-(trifluoromethyl)benzenesulfonamide]	0.1 to 0.999 µM	< 0.1 µM
Cc1cccc(S(=O)(=O)NCc2cccc(-c3c(C)noc3C)c2)c1 [Compound 2, N-(3-(3,5-dimethylisoxazol-4-yl)benzyl)-3-methylbenzenesulfonamide]	1 to 30 µM	1 to 30 µM
Cc1cncc(C)c1-c1cccc(C(C)(C)NS(=O)(=O)c2cccc(C(F)(F)F)c2)c1 [Compound 5AD, N-(2-(3-(3,5-dimethylpyridin-4-yl)phenyl)propan-2-yl)-3-(trifluoromethyl)benzenesulfonamide]	1 to 30 µM	1 to 30 µM
O=S(=O)(NCc1cccc(-c2ccncc2)c1)c1cccc(F)c1 [Compound 2AK]	> 30 µM	1 to 30 µM
C[C@H](NS(=O)(=O)c1cccc(C(F)(F)F)c1)c1cccc(-c2ccncc2Cl)c1 [Compound 1AX]	0.1 to 0.999 µM	0.1 to 0.999 µM
O=S(=O)(NCc1cc(-c2ccncc2)ccc1F)c1cccc(C(F)(F)F)c1 [Compound 1AU]	1 to 30 µM	1 to 30 µM
CC(C)(NS(=O)(=O)c1cccc(C(F)(F)F)c1)c1cccc(-c2ccnc(C(F)(F)F)c2)c1 [Compound 1AH]	> 30 µM	1 to 30 µM
Cc1cnccc1-c1cccc(C(C)(C)NS(=O)(=O)c2ccccc2C(F)(F)F)c1 [Compound 5AI, N-(2-(3-(3-methylpyridin-4-yl)phenyl)propan-2-yl)-2-(trifluoromethyl)benzenesulfonamide]	0.1 to 0.999 µM	< 0.1 µM
O=S(=O)(NCc1ccc(Cl)c(-c2ccncc2)c1)c1cccc(C(F)(F)F)c1 [Compound 1BU]	> 30 µM	1 to 30 µM
COc1cnccc1-c1cccc(CNS(=O)(=O)c2cccc(C(F)(F)F)c2)n1 [Compound 1BQ]	1 to 30 µM	1 to 30 µM
O=[N+]([O-])c1cccc(S(=O)(=O)NCc2cccc(-c3ccncc3)c2)c1 [Compound 2AN]	1 to 30 µM	1 to 30 µM
Cc1noc(C)c1-c1cccc(CNS(=O)(=O)c2cccc(Cl)c2)c1 [Compound 2AA]	1 to 30 µM	1 to 30 µM
O=S(=O)(NCc1cc(Cl)cc(-c2ccncc2)c1)c1cccc(C(F)(F)F)c1 [Compound 1BV]	> 30 µM	1 to 30 µM
C[C@H](NS(=O)(=O)c1cccc(Br)c1)c1cccc(-c2ccncc2Cl)c1 [Compound 2BR]	1 to 30 µM	0.1 to 0.999 µM
O=S(=O)(NCc1cccc(-c2ccncc2)c1)c1ccccc1F [Compound 2AS]	> 30 µM	1 to 30 µM
COc1cnccc1-c1cccc([C@@H](C)NS(=O)(=O)c2cccc(C(F)(F)F)c2)c1 [Compound 1BE]	0.1 to 0.999 µM	0.1 to 0.999 µM
O=S(=O)(NCc1cccc(-c2ccncc2)c1)c1cccc(Cl)c1 [Compound 2AJ]	1 to 30 µM	1 to 30 µM
COc1cccc(S(=O)(=O)NCc2cccc(-c3c(C)noc3C)c2)c1 [Compound 2AB]	1 to 30 µM	1 to 30 µM
COCCOc1cnccc1-c1cccc(C(C)(C)NS(=O)(=O)c2cccc(C(F)(F)F)c2)c1 [Compound 8, N-(2-(3-(3-(2-methoxyethoxy)pyridin-4-yl)phenyl)propan-2-yl)-3-(trifluoromethyl)benzenesulfonamide]	1 to 30 µM	0.1 to 0.999 µM

From patent publication US11236055B2 (Venenum Biodesign, LLC, priority 2016, dated 2022)
